Results as given in patent US8278343B2, “Pyrrolidines” (Pfizer Inc., priority 2008, dated 2012).

Molecular target: T1, recombinant human EP-2 receptor (Homo sapiens, UniProt P43116)
T1 construct: stably transfected with full length cDNA encoding human Prostaglandin E2; expressed in transfected cells
Assay: In vitro antagonist potency against recombinant human prostaglandin E2 (EP-2) receptor in CHO cells (cAMP, Protocol 1)
Assay type: cell-based
Conditions: CHO cells expressing recombinant human EP-2 receptor, stimulated with 5 nM PGE2; cAMP readout; Ki by Cheng-Prusoff equation; read-out: EP2 Ki
Experimental: 1.0 Measurement of In Vitro Antagonist Potency (IC50) of Compounds Against Recombinant Human Prostaglandin E2 Receptor in CHO Cells
The prostaglandin E2 (EP-2) receptor is Gs coupled and agonism of the receptor by PGE2 results in activation of intracellular adenylate cyclase enzymes that synthesise the second messenger signalling molecule, adenosine 3′,5′-cyclic monophosphate (cAMP). CHO cells expressing the recombinant human EP-2 receptor are stimulated with PGE2 (5 nM) equivalent to approximately […] values to give the maximal cAMP signal. Decreases in cAMP levels following treatment of stimulated recombinant EP-2 cells with potential antagonist compounds were measured and potency (IC50) calculated as follows.
A Chinese hamster ovary (CHO) cell line stably transfected with full length cDNA encoding human Prostaglandin E2 was established using standard molecular biology methods. Test compounds were dissolved in dimethyl sulphoxide (DMSO) at 4 mM. 11 point half log unit increment dilution series of test compound were prepared in DMSO then diluted 1 in 40 in a buffer comprised of phosphate buffered saline (PBS) and 0.05% pluronic F-127 surfactant. Freshly cultured cells at 80-90% confluence were harvested and re-suspended in 90% growth media/10% DMSO. The cells were frozen using a planar freezer and stored in frozen aliquots in cryovials in liquid nitrogen until the day of the experiment. A vial of cells was defrosted in a 37° C. water bath for 2 min, then transferred to 10 ml of Dulbecco's Modified Eagle's Medium (DMEM). The cells were then centrifuged for 5 min at 1000 g and the pellet re-suspended at 1,000,000 cells/ml in DMEM. 5,000 cells (5 ul) were added to 5 ul of the compound dilution series in a 384 well assay plate and pre-incubated for 30 min at 37° C. 5 ul of agonist (15 nM PGE2 in PBS to give 5 nM FAC) was added and plates further incubated for 90 min at 37° C. The relative cAMP concentration in each well was then measured using a β-galactosidase enzyme fragment complementation method purchased in kit form as the Discoverx cAMP II kit from GE Healthcare, UK. […] Sigmoidal curves were fitted to plots of log10 inhibitor concentration vs percent effect. IC50 estimates were determined as the concentration of test compound giving an effect half way between the bottom and top asymptotes of the sigmoidal dose response curve. Each experiment included an IC50 determination for the literature compound as a standard to track assay consistency and allow fair comparison between values obtained in different experiments. The EC50 of PGE2 is used in combination with the ligand concentration in the assay to determine Ki values for antagonist dose responses using the Cheng-Prusoff equation. Consequently an agonist dose response curve is carried out for each experiment using the same incubation as the antagonist plate.

T1 sequence (P43116 whole entry): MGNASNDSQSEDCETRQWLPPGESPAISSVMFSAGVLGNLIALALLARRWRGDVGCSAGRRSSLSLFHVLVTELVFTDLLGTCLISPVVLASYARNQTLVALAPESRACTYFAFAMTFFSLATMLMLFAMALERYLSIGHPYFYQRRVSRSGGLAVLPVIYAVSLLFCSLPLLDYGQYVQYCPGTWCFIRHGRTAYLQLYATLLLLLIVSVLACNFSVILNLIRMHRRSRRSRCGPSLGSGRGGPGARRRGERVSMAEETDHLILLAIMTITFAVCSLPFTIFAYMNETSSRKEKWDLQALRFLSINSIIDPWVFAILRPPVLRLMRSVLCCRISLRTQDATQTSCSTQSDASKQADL

| Compound | Ki [nM] |
| --- | --- |
| COc1ccccc1C(=O)N1CCC(COc2ccc(-c3ccc(C#N)cc3)nc2)(C(=O)O)C1 (single isomer, unassigned) [Example 62] | 868 |
| COc1ccccc1C(=O)N1CCC(COc2ccc(-c3ncc(F)cn3)cc2)(C(=O)O)C1 (single isomer, unassigned) [Example 63] | 174 |
| COc1ccccc1C(=O)N1CCC(COc2ccc(-c3ncc(F)cn3)cc2)(C(=O)O)C1 (single isomer, unassigned) [Example 64] | 621 |
| COc1ccccc1C(=O)N1CCC(COc2ccc(-c3ncc(C#N)cn3)cc2)(C(=O)O)C1 (single isomer, unassigned) [Example 65] | 175 |
| COc1ccccc1C(=O)N1CCC(COc2ccc(-c3ccc(C#N)cc3)cc2)(C(=O)O)C1 (single isomer, unassigned) [Example 66] | 3.3 |
| COc1ccccc1C(=O)N1CCC(COc2ccc(-c3ccc(C#N)cc3)cc2)(C(=O)O)C1 (single isomer, unassigned) [Example 67] | 85.7 |
| COc1ccccc1C(=O)N1CCC(COc2ccc(-c3ccc(F)cc3)cc2)(C(=O)O)C1 (single isomer, unassigned) [Example 68] | 14.6 |
| COc1ccccc1C(=O)N1CCC(COc2ccc(-c3ccc(F)cc3)cc2)(C(=O)O)C1 (single isomer, unassigned) [Example 69] | 309 |
| COc1ccccc1C(=O)N1CCC(COc2ccc(-c3ccc(Cl)cc3)nc2)(C(=O)O)C1 (single isomer, unassigned) [Example 70] | 22.7 |
| COc1ccccc1C(=O)N1CCC(COc2ccc(-c3ccc(Cl)cc3)nc2)(C(=O)O)C1 (single isomer, unassigned) [Example 71] | 23.9 |
| COc1ccccc1C(=O)N1CCC(COc2ccc(-c3ncc(Cl)cn3)cc2)(C(=O)O)C1 (single isomer, unassigned) [Example 72] | 25.5 |
| COc1ccccc1C(=O)N1CCC(COc2ccc(-c3ncc(Cl)cn3)cc2)(C(=O)O)C1 (single isomer, unassigned) [Example 73] | 459 |
| COc1ccccc1C(=O)N1CCC(COc2cnc(-c3ccc(Cl)cc3)nc2)(C(=O)O)C1 (single isomer, unassigned) [Example 74] | 35.6 |
| COc1ccccc1C(=O)N1CCC(COc2cnc(-c3ccc(Cl)cc3)nc2)(C(=O)O)C1 (single isomer, unassigned) [Example 75] | 504 |
| COc1ccccc1C(=O)N1CCC(COc2ccc(-c3ccc(F)cc3)nc2)(C(=O)O)C1 (single isomer, unassigned) [Example 76] | 158 |
| O=C(C1CCC1)N1CCC(COc2ccc(-c3ccc(F)cc3)cc2)(C(=O)O)C1 (single isomer, unassigned) [Example 79] | 21.3 |
| O=C(C1CCC1)N1CCC(COc2ccc(-c3ccc(F)cc3)cc2)(C(=O)O)C1 (single isomer, unassigned) [Example 80] | 344 |
| O=C(C1CCCC1)N1CCC(COc2ccc(-c3ccc(F)cc3)cc2)(C(=O)O)C1 (single isomer, unassigned) [Example 81] | 55.5 |
| O=C(C1CCCC1)N1CCC(COc2ccc(-c3ccc(F)cc3)cc2)(C(=O)O)C1 (single isomer, unassigned) [Example 82] | 524 |
| O=C(C1CC1)N1CCC(COc2ccc(-c3ccc(F)cc3)cc2)(C(=O)O)C1 (single isomer, unassigned) [Example 83] | 119 |
| O=C(C1CC1)N1CCC(COc2ccc(-c3ccc(F)cc3)cc2)(C(=O)O)C1 (single isomer, unassigned) [Example 84] | 438 |

| Compound | Ki [nM] |
| --- | --- |
| Cc1ccc(OC(=O)N2CCC(COc3ccc(-c4ccc(F)cc4)cc3)(C(=O)O)C2)cc1 (single isomer, unassigned) [Example 86] | 5.36 |
| Cc1ccc(OC(=O)N2CCC(COc3ccc(-c4ccc(F)cc4)cc3)(C(=O)O)C2)cc1 (single isomer, unassigned) [Example 87] | 225 |
| O=C(Oc1ccc(Cl)cc1)N1CCC(COc2ccc(-c3ccc(F)cc3)cc2)(C(=O)O)C1 (single isomer, unassigned) [Example 88] | 14.9 |
| O=C(Oc1ccc(Cl)cc1)N1CCC(COc2ccc(-c3ccc(F)cc3)cc2)(C(=O)O)C1 (single isomer, unassigned) [Example 89] | 252 |
| O=C(Oc1ccc(F)cc1)N1CCC(COc2ccc(-c3ccc(F)cc3)cc2)(C(=O)O)C1 (single isomer, unassigned) [Example 90] | 4.16 |
| O=C(Oc1ccc(F)cc1)N1CCC(COc2ccc(-c3ccc(F)cc3)cc2)(C(=O)O)C1 (single isomer, unassigned) [Example 91] | 37.4 |
| COc1ccc(OC(=O)N2CCC(COc3ccc(-c4ccc(F)cc4)cc3)(C(=O)O)C2)cc1 (single isomer, unassigned) [Example 92] | 7.81 |
| COc1ccc(OC(=O)N2CCC(COc3ccc(-c4ccc(F)cc4)cc3)(C(=O)O)C2)cc1 (single isomer, unassigned) [Example 93] | 165 |
| COc1ccccc1OC(=O)N1CCC(COc2ccc(-c3ccc(F)cc3)cc2)(C(=O)O)C1 (single isomer, unassigned) [Example 94] | 431 |
| COc1ccc(NC(=O)N2CCC(COc3ccc(-c4ccc(F)cc4)cc3)(C(=O)O)C2)cc1 (single isomer, unassigned) [Example 95] | 1.03 |
| COc1ccc(NC(=O)N2CCC(COc3ccc(-c4ccc(F)cc4)cc3)(C(=O)O)C2)cc1 (single isomer, unassigned) [Example 96] | 178 |
| COc1cccc(NC(=O)N2CCC(COc3ccc(-c4ccc(F)cc4)cc3)(C(=O)O)C2)c1 (single isomer, unassigned) [Example 97] | 1.89 |
| COc1cccc(NC(=O)N2CCC(COc3ccc(-c4ccc(F)cc4)cc3)(C(=O)O)C2)c1 (single isomer, unassigned) [Example 98] | 260 |
| O=C(Nc1ccccc1Cl)N1CCC(COc2ccc(-c3ccc(F)cc3)cc2)(C(=O)O)C1 (single isomer, unassigned) [Example 99] | 1.99 |
| O=C(Nc1ccccc1Cl)N1CCC(COc2ccc(-c3ccc(F)cc3)cc2)(C(=O)O)C1 (single isomer, unassigned) [Example 100] | 518 |
| O=C(Nc1ccc(Cl)cc1)N1CCC(COc2ccc(-c3ccc(F)cc3)cc2)(C(=O)O)C1 (single isomer, unassigned) [Example 101] | 3.59 |
| O=C(Nc1ccc(Cl)cc1)N1CCC(COc2ccc(-c3ccc(F)cc3)cc2)(C(=O)O)C1 (single isomer, unassigned) [Example 102] | 160 |
| O=C(Nc1ccccc1F)N1CCC(COc2ccc(-c3ccc(F)cc3)cc2)(C(=O)O)C1 (single isomer, unassigned) [Example 103] | 3.77 |
| O=C(Nc1ccccc1F)N1CCC(COc2ccc(-c3ccc(F)cc3)cc2)(C(=O)O)C1 (single isomer, unassigned) [Example 104] | 392 |
| COc1ccccc1C(=O)N1CCC(COc2ccc(-c3ccc(C#N)cn3)cc2)(C(=O)O)C1 (centres unmarked) [Example 3, 3 ((4-(5-cyanopyridin-2-yl)phenoxy)methyl)-1-(2-methoxybenzoyl)pyrrolidine-3-carboxylic acid] | 24.4 |
